Assay results taken from US11965039B2, “Compstatin analogues and their medical uses” (priority 2018, dated 2024).
Positions of bridges follow the written chain, without caps; N, C: chain ends. Non-standard residues stand in square brackets, D forms with d. Residues, ends and D or L forms follow the SMILES beside them. *: point of attachment. Trp(1-Me) = Cn1cc(C[C@H](N)C(=O)O)c2ccccc21; C18 diacid = O=C(O)CCCCCCCCCCCCCCCCC(=O)*; C16 diacid = O=C(O)CCCCCCCCCCCCCCC(=O)*; Sar = CNCC(=O)O

How the values were obtained:
[1] = Solubility test at 10 mg/mL (visual inspection and light scattering); format: physicochemical; settings: for Solubility, Condition 1: Acetate pH 4; for Solubility, Condition 2: Acetate pH 5; for Solubility, Condition 3: Phosphate pH 6; for Solubility, Condition 4: Phosphate pH 7; for Solubility, Condition 5: Phosphate pH 7.5
[2] = tested on: classical complement pathway; assay: In vitro haemolysis assay (inhibition of classical complement pathway); format: cell-based, human; settings: human serum, sensitized sheep red blood cells; Table 3, given as upper bounds; read-out: IC50, inhibition of hemolysis
Procedure, shortened: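 Compound dilutions preincubated 15 min at room temperature with diluted human serum (titrated per batch for 70-90% maximal haemolysis), then antibody-sensitized sheep RBC (10^7/well) added for 30 min at 37 °C in Tris/casein buffer, pH 7.4. Stopped with EDTA; haemolysis read at 405 nm; IC50 by 4PL fit.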

Row | SMILES | Solubility, Condition 1 [1] | Solubility, Condition 2 [1] | Solubility, Condition 3 [1] | Solubility, Condition 4 [1] | Solubility, Condition 5 [1] | IC50 [2] [nM]
1 | CC[C@H](C)[C@@H]1NC(=O)[C@@H](NC(=O)[C@H](Cc2ccc(O)cc2)NC(=O)[C@H](CCC(=O)O)NC(=O)[C@H](CO)NC(=O)CNC(=O)[C@H](CCC(=O)O)NC(=O)CCCCCCCCCCCCCCCCC(=O)O)CSSC[C@@H](C(=O)N(C)CC(=O)N[C@@H](CCC(=O)O)C(N)=O)NC(=O)[C@H](CCCNC(=N)N)NC(=O)[C@H](Cc2c[nH]cn2)NC(=O)[C@H](CCC(=O)O)NC(=O)CNC(=O)[C@H](Cc2c[nH]c3ccccc23)NC(=O)[C@H](CC(=O)O)NC(=O)[C@H](CCC(N)=O)NC(=O)[C@H](Cc2cn(C)c3ccccc23)NC1=O [Compound 108] ({C18 diacid}-EGSEYCI[Trp(1-Me)]QDWGEHRC[Sar]E-NH2; disulfide 6-16) | − (“−” denotes lack of solubility at the given condition, as UV absorbance at 340 nm exceeds 0.1 AU and/or it is visibly turbid or contains particles) | − (“−” denotes lack of solubility at the given condition, as UV absorbance at 340 nm exceeds 0.1 AU and/or it is visibly turbid or contains particles) | + (“+” denotes solubility at the given condition, as determined by UV absorbance being less than 0.1 AU at 340 nm and the sample being clear when manually inspected) | + (“+” denotes solubility at the given condition, as determined by UV absorbance being less than 0.1 AU at 340 nm and the sample being clear when manually inspected) | + (“+” denotes solubility at the given condition, as determined by UV absorbance being less than 0.1 AU at 340 nm and the sample being clear when manually inspected) | < 500
2 | CC[C@H](C)[C@@H]1NC(=O)[C@@H](NC(=O)[C@H](Cc2ccc(O)cc2)NC(=O)[C@H](CCC(=O)O)NC(=O)[C@H](CO)NC(=O)CNC(=O)[C@H](CCC(=O)O)NC(=O)CCCCCCCCCCCCCCC(=O)O)CSSC[C@@H](C(=O)N(C)CC(=O)N[C@@H](CCC(=O)O)C(N)=O)NC(=O)[C@H](CCCNC(=N)N)NC(=O)[C@H](Cc2c[nH]cn2)NC(=O)[C@H](CCC(=O)O)NC(=O)CNC(=O)[C@H](Cc2c[nH]c3ccccc23)NC(=O)[C@H](CC(=O)O)NC(=O)[C@H](CCC(N)=O)NC(=O)[C@H](Cc2cn(C)c3ccccc23)NC1=O [Compound 107] ({C16 diacid}-EGSEYCI[Trp(1-Me)]QDWGEHRC[Sar]E-NH2; disulfide 6-16) | − (“−” denotes lack of solubility at the given condition, as UV absorbance at 340 nm exceeds 0.1 AU and/or it is visibly turbid or contains particles) | − (“−” denotes lack of solubility at the given condition, as UV absorbance at 340 nm exceeds 0.1 AU and/or it is visibly turbid or contains particles) | + (“+” denotes solubility at the given condition, as determined by UV absorbance being less than 0.1 AU at 340 nm and the sample being clear when manually inspected) | + (“+” denotes solubility at the given condition, as determined by UV absorbance being less than 0.1 AU at 340 nm and the sample being clear when manually inspected) | + (“+” denotes solubility at the given condition, as determined by UV absorbance being less than 0.1 AU at 340 nm and the sample being clear when manually inspected) | < 100
